Source: patent publication US10442773B2, “Amorphous letermovir and solid pharmaceutical formulations thereof for oral administration” (AICURIS ANTI-INFECTIVE CURES GMBH, priority 2013, dated 2019)
Values joined by “and” are separate entries in the source; they are usually repeats but may differ in a detail not shown here. Equal entries are not always repeated.

test: Laser diffraction particle size distribution analysis (Mastersizer 2000); type: physicochemical; details: Mastersizer 2000, dry dispersion, average of four analyses
Method: Laser diffraction particle size distribution analysis was conducted on two batches of precipitated amorphous Letermovir of the invention and on a batch of amorphous Letermovir (referred to as BXR3GBL) produced according to Example 11 of WO 2006/133822 while using laser diffraction technique of the Mastersizer 2000 (Malvern Instruments). The results of the analysis are presented in FIG. 9(a-c) in the form of three particle size distribution charts and the numeric part of the results is shown below in Table 23: The particular PSD analysis method is characterized by the following parameter: Device: Mastersizer 2000 with dry dispersion Modus: Fraunhofer; weight-in quantity: 0.3-0.4 g Measurement time: 20 seconds Background time: 6 seconds Obscuration limits: 0.5 to 6% Sample tray: micro volume; small sieve with balls Feed rate: 45-55% Dispersive pressure: 2.5 bar Four independent analyses were performed and the results were averaged.

| Structure (SMILES) | Particle Size Median Value d(0.5), μm |
| --- | --- |
| COc1cccc(N2CCN(C3=Nc4c(F)cccc4[C@H](CC(=O)O)N3c3cc(C(F)(F)F)ccc3OC)CC2)c1 [Batch 1300750] | 9.383 μm |
| COc1cccc(N2CCN(C3=Nc4c(F)cccc4[C@H](CC(=O)O)N3c3cc(C(F)(F)F)ccc3OC)CC2)c1 [Batch BXR3GBL, reference compound] | 21.607 μm |
| COc1cccc(N2CCN(C3=Nc4c(F)cccc4[C@H](CC(=O)O)N3c3cc(C(F)(F)F)ccc3OC)CC2)c1 [Batch 1300735] | 8.880 μm |

test: BET specific surface area analysis; type: physicochemical; details: further BET measurement accompanying the particle size analysis (Table 23)
Method: BET specific surface area analysis was conducted on various batches of precipitated amorphous Letermovir. The same was done on a batch of Letermovir (named BXR3GBL) produced according to Example 11 of WO 2006/133822. The results of the analysis are shown below in Table 22: The particular BET method is characterized by the following parameter: Principle: Nitrogen adsorption at 77 K; method according to Brunauer, Emmett and Teller Method: volumetric method (method II) according to USP <846> Instrument: Tristar 3000/VacPrep 061 (Micromeritics) Sample mass: approximately 1.5-2.5 g Sample preparation: degassing for 2 h at 40° C. under vacuum (final vacuum <2.7 Pa) Pressure range p/p0: 0.05-0.15 (3 data points).

| Structure (SMILES) | Specific Surface Area (SSA), m^2/g |
| --- | --- |
| COc1cccc(N2CCN(C3=Nc4c(F)cccc4[C@H](CC(=O)O)N3c3cc(C(F)(F)F)ccc3OC)CC2)c1 [Batch 1300750] | 2.1 m^2/g |
| COc1cccc(N2CCN(C3=Nc4c(F)cccc4[C@H](CC(=O)O)N3c3cc(C(F)(F)F)ccc3OC)CC2)c1 [Batch BXR3GBL, reference compound] | 1.55 m^2/g |
| COc1cccc(N2CCN(C3=Nc4c(F)cccc4[C@H](CC(=O)O)N3c3cc(C(F)(F)F)ccc3OC)CC2)c1 [Batch 1300735] | 2.18 m^2/g |

same assay, conditions: isolated API

| Structure (SMILES) | specific surface area |
| --- | --- |
| COc1cccc(N2CCN(C3=Nc4c(F)cccc4[C@H](CC(=O)O)N3c3cc(C(F)(F)F)ccc3OC)CC2)c1 [roller dried Letermovir] | < 1 m^2/g |
| COc1cccc(N2CCN(C3=Nc4c(F)cccc4[C@H](CC(=O)O)N3c3cc(C(F)(F)F)ccc3OC)CC2)c1 [precipitated Letermovir, (S)-{8-fluoro-2-[4-(3-methoxyphenyl)piperazin-1-yl]-3-(2-methoxy-5-trifluormethylphenyl)-3,4-dihydroquinazolin-4-yl}acetic acid] | 1.2-2 m^2/g |

same assay, conditions: nitrogen adsorption at 77 K

| Structure (SMILES) | Specific Surface Area (SSA), m^2/g; BET value on average |
| --- | --- |
| COc1cccc(N2CCN(C3=Nc4c(F)cccc4[C@H](CC(=O)O)N3c3cc(C(F)(F)F)ccc3OC)CC2)c1 [Batch 40479434] | 1.48 m^2/g |
| COc1cccc(N2CCN(C3=Nc4c(F)cccc4[C@H](CC(=O)O)N3c3cc(C(F)(F)F)ccc3OC)CC2)c1 [Batch 40474463] | 1.23 m^2/g |
| COc1cccc(N2CCN(C3=Nc4c(F)cccc4[C@H](CC(=O)O)N3c3cc(C(F)(F)F)ccc3OC)CC2)c1 [Batch 40479201] | 1.97 m^2/g |
| COc1cccc(N2CCN(C3=Nc4c(F)cccc4[C@H](CC(=O)O)N3c3cc(C(F)(F)F)ccc3OC)CC2)c1 [Batch 40483515] | 1.03 m^2/g |
| COc1cccc(N2CCN(C3=Nc4c(F)cccc4[C@H](CC(=O)O)N3c3cc(C(F)(F)F)ccc3OC)CC2)c1 [Batch 40479248] | 1.45 m^2/g |
| COc1cccc(N2CCN(C3=Nc4c(F)cccc4[C@H](CC(=O)O)N3c3cc(C(F)(F)F)ccc3OC)CC2)c1 [Batch 40483516] | 1.28 m^2/g |
| COc1cccc(N2CCN(C3=Nc4c(F)cccc4[C@H](CC(=O)O)N3c3cc(C(F)(F)F)ccc3OC)CC2)c1 [Batch 40475297] | 1.25 m^2/g |
| COc1cccc(N2CCN(C3=Nc4c(F)cccc4[C@H](CC(=O)O)N3c3cc(C(F)(F)F)ccc3OC)CC2)c1 [Batch 40479463] | 1.45 m^2/g |
| COc1cccc(N2CCN(C3=Nc4c(F)cccc4[C@H](CC(=O)O)N3c3cc(C(F)(F)F)ccc3OC)CC2)c1 [Batch 40474375] | 1.46 m^2/g |
| COc1cccc(N2CCN(C3=Nc4c(F)cccc4[C@H](CC(=O)O)N3c3cc(C(F)(F)F)ccc3OC)CC2)c1 [Batch 40483517] | 1.87 m^2/g and 1.83 m^2/g |
| COc1cccc(N2CCN(C3=Nc4c(F)cccc4[C@H](CC(=O)O)N3c3cc(C(F)(F)F)ccc3OC)CC2)c1 [Batch BXR3GBL, reference compound] | 0.64 m^2/g |
| COc1cccc(N2CCN(C3=Nc4c(F)cccc4[C@H](CC(=O)O)N3c3cc(C(F)(F)F)ccc3OC)CC2)c1 [Batch 40479202] | 1.69 m^2/g |
| COc1cccc(N2CCN(C3=Nc4c(F)cccc4[C@H](CC(=O)O)N3c3cc(C(F)(F)F)ccc3OC)CC2)c1 [Batch 40479326] | 1.76 m^2/g |
| COc1cccc(N2CCN(C3=Nc4c(F)cccc4[C@H](CC(=O)O)N3c3cc(C(F)(F)F)ccc3OC)CC2)c1 [Batch 40479198] | 2.09 m^2/g |
| COc1cccc(N2CCN(C3=Nc4c(F)cccc4[C@H](CC(=O)O)N3c3cc(C(F)(F)F)ccc3OC)CC2)c1 [Batch 40479189] | 1.26 m^2/g |
| COc1cccc(N2CCN(C3=Nc4c(F)cccc4[C@H](CC(=O)O)N3c3cc(C(F)(F)F)ccc3OC)CC2)c1 [Batch 40479200] | 1.30 m^2/g |
